The values below come from patent US20230331675A1, “AROMATIC ETHYLENE COMPOUND AND PREPARATION METHOD THEREFOR, AND INTERMEDIATE, PHARMACEUTICAL COMPOSITION, AND APPLICATION THEREOF” (GUANGZHOU MAXINOVEL PHARMACEUTICALS CO., LTD., priority 2020, published 2023).

pIC50: −log10 of the molar value. Where only a bound is given, the exact number is not on record here.

Sequence of PD-1/PD-L1 (Q9NZQ7 19-238): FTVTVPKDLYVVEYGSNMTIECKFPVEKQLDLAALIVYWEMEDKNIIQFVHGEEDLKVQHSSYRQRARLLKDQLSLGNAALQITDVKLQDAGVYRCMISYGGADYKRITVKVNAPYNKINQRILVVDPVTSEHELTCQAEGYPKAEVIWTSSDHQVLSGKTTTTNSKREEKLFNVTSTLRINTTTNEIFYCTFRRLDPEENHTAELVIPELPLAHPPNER

The assay has as its target PD-1/PD-L1 (Homo sapiens (Human), UniProt Q9NZQ7). Kind of assay: Homogeneous time-resolved fluorescence (HTRF) binding assay. The note with it: CisBio kit, read-out: IC50 of compounds binding to PD-1/PD-L1. From the text: Effect embodiment 1: Homogenouse time-resolved fluorescence
Homogeneous time-resolved fluorescence (HTRF) binding assay was used to determine the binding ability of the compound of the present disclosure to PD-1/PD-L1.
The purchased kit (CisBio, #64CUS000C-1) contained reagents required for assays such as PD-1, PD-L1, anti-tag1-Eu, Anti-tag2-XL665, dilute buffer, and detection buffer.
1. The compound was formulated to 10 concentrations with a 3-fold gradient with 100% DMSO.
2. The DMSO solution of the compound was added to the dilute buffer, mixed thoroughly, then transferred to a 96-well plate.
3. PD-L1 was diluted with dilute buffer, then added to the above 96-well plate.
4. PD-1 was diluted with dilute buffer and added to the above 96-well plate, which was then incubated at room temperature for 30 minutes.
5. A portion of anti-tag1-Eu and a portion of anti-tag2-XL665 were added to the detection buffer, mixed thoroughly and transferred to the above 96-well plate.
6. The mixture in the above 96-well plate was incubated at room temperature for 1 to 24 hours.
7. HTRF values were read with Envision.
For orientation: TR-FRET usually uses a lanthanide donor and a delayed reading to cut background.
As to `Cc1cc(/C=C/c2cccc(-c3ccccc3)c2C#N)c(Cl)cc1CN1CCN(C)C[C@H]1C(=O)O` [Compound 14, (S,E)-1-(5-Chloro-4-(2-(2-cyano-[1,1′-biphenyl]-3-yl)vinyl)-2-methylbenzyl)-4-methylpiperazine-2-carboxylic acid], the pIC50 is 7.07. For `Cc1cc(CN2CCCC[C@H]2C(=O)O)c(OCCCCC#N)cc1/C=C/c1cccc(-c2ccccc2)c1C#N` [Compound 15, (S,E)-1-(4-(2-(2-Cyano-[1,1′-biphenyl]-3-yl)vinyl)-2-(4-cyanobutoxy)-5-methylbenzyl)piperidine-2-carboxylic acid], the pIC50 was 8.68. Consider `Cc1cc(CNCC(=O)O)c(OCCCCC#N)cc1/C=C/c1cccc(-c2ccccc2)c1C#N` [Compound 16, (E)-(4-(2-(2-Cyano-[1,1′-biphenyl]-3-yl)vinyl)-2-(4-cyanobutoxy)-5-methylbenzyl)glycine], for which the pIC50 is 7.84. In the case of `Cc1cc(CN2CCOC[C@H]2C(=O)O)c(OCCCCC#N)cc1/C=C/c1cccc(-c2ccccc2)c1C#N` [Compound 17, (S,E)-4-(4-(2-(2-Cyano-[1,1′-biphenyl]-3-yl)vinyl)-2-(4-cyanobutoxy)-5-methylbenzyl)morpholine-3-carboxylic acid] it was 8.36; in that of `Cc1cc(CN2CCNC[C@H]2C(=O)O)c(OCCCCC#N)cc1/C=C/c1cccc(-c2ccccc2)c1C#N` [Compound 18, (S,E)-1-(4-(2-(2-Cyano-[1,1′-biphenyl]-3-yl)vinyl)-2-(4-cyanobutoxy)-5-methylbenzyl)piperazine-2-carboxylic acid], 7.65. For `Cc1cc(/C=C/c2cccc(-c3ccccc3)c2C#N)c(Cl)cc1CNCC(=O)O` [Compound 19, (E)-(5-Chloro-4-(2-(2-cyano-[1,1′-biphenyl]-3-yl)vinyl)-2-methylbenzyl)glycine], the pIC50 is 8.21. In the case of `N#Cc1c(/C=C/c2cc(CO)c(CN3CCCC[C@H]3C(=O)O)cc2C(F)(F)F)cccc1-c1ccccc1` [Compound 20, (S,E)-1-(4-(2-(2-Cyano-[1,1′-biphenyl]-3-yl)vinyl)-2-hydroxymethyl-5-trifluoromethylbenzyl)piperidine-2-carboxylic acid] it was 8.43. As for `N#Cc1c(/C=C/c2cc(CO)c(CN3CCOC[C@H]3C(=O)O)cc2C(F)(F)F)cccc1-c1ccccc1` [Compound 21, (S,E)-4-(4-(2-(2-Cyano-[1,1′-biphenyl]-3-yl)vinyl)-2-hydroxymethyl-5-trifluoromethylbenzyl)morpholine-3-carboxylic acid], the figure is 7.24. As for `Cc1cc(/C=C/c2cccc(-c3ccccc3)c2C)c(Cl)cc1CN1CCOC[C@H]1C(=O)O` [Compound 22, (S,E)-4-(5-Chloro-2-methyl-4-(2-(2-methyl-[1,1′-biphenyl]-3-yl)vinyl)benzyl)morpholine-3-carboxylic acid], the figure is 7.94; as for `Cc1cc(/C=C/c2cccc(-c3ccccc3)c2C)c(Cl)cc1CN1CCNC[C@H]1C(=O)O` [Compound 23, (S,E)-1-(5-Chloro-2-methyl-4-(2-(2-methyl-[1,1′-biphenyl]-3-yl)vinyl)benzyl)piperazine-2-carboxylic acid], 6.73; as for `COCCOc1cc(/C=C/c2cccc(-c3ccccc3)c2C#N)c(C)cc1CN1CCCC[C@H]1C(=O)O` [Compound 24, (S,E)-1-(4-(2-(2-Cyano-[1,1′-biphenyl]-3-yl)vinyl)-2-(2-methoxyethoxy)-5-methylbenzyl)piperidine-2-carboxylic acid], 8.17. With `COCCOc1cc(/C=C/c2cccc(-c3ccccc3)c2C#N)c(C)cc1CN1CCOC[C@H]1C(=O)O` [Compound 25, (S,E)-4-(4-(2-(2-Cyano-[1,1′-biphenyl]-3-yl)vinyl)-2-(2-methoxyethoxy)-5-methylbenzyl)morpholine-3-carboxylic acid], the pIC50 is 8.04. In the case of `Cc1cc(CN2CCCC[C@H]2C(=O)O)c(OCCO)cc1/C=C/c1cccc(-c2ccccc2)c1C#N` [Compound 26] it was 8.33; in that of `COCCOc1cc(/C=C/c2cccc(-c3ccccc3)c2C#N)c(C)cc1CN1CCNC[C@H]1C(=O)O` [Compound 27, (S,E)-1-(4-(2-(2-Cyano-[1,1′-biphenyl]-3-yl)vinyl)-2-(2-methoxyethoxy)-5-methylbenzyl)piperazine-2-carboxylic acid], 7.24. In the case of `N#Cc1c(/C=C/c2cc(CO)c(CN3CCNC[C@H]3C(=O)O)cc2C(F)(F)F)cccc1-c1ccccc1` [Compound 28, (S,E)-1-(4-(2-(2-Cyano-[1,1′-biphenyl]-3-yl)vinyl)-2-hydroxymethyl-5-trifluoromethylbenzyl)piperazine-2-carboxylic acid] it was 6.87; in that of `Cc1cc(/C=C/c2cccc(-c3ccccc3)c2C#N)c(Cl)cc1CN1CCN(C(N)=O)C[C@H]1C(=O)O` [Compound 29, (S,E)-4-Carbamoyl-1-(5-chloro-4-(2-(2-cyano-[1,1′-biphenyl]-3-yl)vinyl)-2-methylbenzyl)piperazine-2-carboxylic acid], 7.21; in that of `Cc1cc(CN2CCOC[C@H]2C(=O)O)c(OCCO)cc1/C=C/c1cccc(-c2ccccc2)c1C#N` [Compound 30, (S,E)-4-(4-(2-(2-Cyano-[1,1′-biphenyl]-3-yl)vinyl)-2-(2-hydroxyethoxy)-5-methylbenzyl)morpholine-3-carboxylic acid], 8.11.

`Cc1cc(CN2CCCC[C@H]2C(=O)O)c(O)cc1/C=C/c1cccc(-c2ccccc2)c1C#N` [Compound 31, (S,E)-1-(4-(2-(2-Cyano-[1,1′-biphenyl]-3-yl)vinyl)-2-hydroxy-5-methylbenzyl)piperidine-2-carboxylic acid]: the pIC50 is 5.94.

With `COCCOc1cc(/C=C/c2cccc(-c3ccccc3)c2C#N)c(CN2CCCC[C@H]2C(=O)O)cc1Cl` [Compound 33, (S,E)-1-(5-Chloro-2-(2-(2-cyano-[1,1′-biphenyl]-3-yl)vinyl)-4-(2-methoxyethoxy)benzyl)piperidine-2-carboxylic acid], the pIC50 was below 5.00. In the case of `COCCOc1cc(/C=C/c2cccc(-c3ccccc3)c2C#N)c(CN2CCOC[C@H]2C(=O)O)cc1Cl` [Compound 34, (S,E)-4-(5-Chloro-2-(2-(2-cyano-[1,1′-biphenyl]-3-yl)vinyl)-4-(2-methoxyethoxy)benzyl)morpholine-3-carboxylic acid] it was below 5.00; in that of `COCCOc1cc(/C=C/c2cccc(-c3ccccc3)c2C#N)c(CN[C@@](C)(CO)C(=O)O)cc1Cl` [Compound 35, (S,E)-2-((5-Chloro-2-(2-(2-cyano-[1,1′-biphenyl]-3-yl)vinyl)-4-(2-methoxyethoxy)benzyl)amino)-3-hydroxy-2-methylpropanoic acid], 5.94; in that of `CS(=O)(=O)CCCOc1cc(/C=C/c2cccc(-c3ccccc3)c2C#N)c(CN2CCCC[C@H]2C(=O)O)cc1Cl` [Compound 36], below 5.00. `CS(=O)(=O)CCCOc1cc(/C=C/c2cccc(-c3ccccc3)c2C#N)c(CN2CCOC[C@H]2C(=O)O)cc1Cl` [Compound 37]: the pIC50 was below 5.00. In the case of `Cc1cc(OCCCCC#N)c(CN2CCCC[C@H]2C(=O)O)cc1/C=C/c1cccc(-c2ccccc2)c1C#N` [Compound 39, (S,E)-1-(5-(2-(2-Cyano-[1,1′-biphenyl]-3-yl)vinyl)-2-(4-cyanobutoxy)-4-methylbenzyl)piperidine-2-carboxylic acid] it was 6.76; in that of `Cc1cc(OCCCCC#N)c(CN2CCOC[C@H]2C(=O)O)cc1/C=C/c1cccc(-c2ccccc2)c1C#N` [Compound 40, (S,E)-4-(5-(2-(2-Cyano-[1,1′-biphenyl]-3-yl)vinyl)-2-(4-cyanobutoxy)-4-methylbenzyl)morpholine-3-carboxylic acid], 5.84. On to `Cc1cc(OCCO)c(CN2CCCC[C@H]2C(=O)O)cc1/C=C/c1cccc(-c2ccccc2)c1C#N` [Compound 41, (S,E)-1-(5-(2-(2-Cyano-[1,1′-biphenyl]-3-yl)vinyl)-2-(2-hydroxyethoxy)-4-methylbenzyl)piperidine-2-carboxylic acid], for which the pIC50 is 6.55.

As for `Cc1cc(OCCO)c(CN2CCOC[C@H]2C(=O)O)cc1/C=C/c1cccc(-c2ccccc2)c1C#N` [Compound 42, (S,E)-4-(5-(2-(2-Cyano-[1,1′-biphenyl]-3-yl)vinyl)-2-(2-hydroxyethoxy)-4-methylbenzyl)morpholine-3-carboxylic acid], the pIC50 was 6.15. Turning to `COCCOc1cc(C)c(/C=C/c2cccc(-c3ccccc3)c2C#N)cc1CN1CCCC[C@H]1C(=O)O` [Compound 43, (S,E)-1-(5-(2-(2-Cyano-[1,1′-biphenyl]-3-yl)vinyl)-2-(2-methoxyethoxy)-4-methylbenzyl)piperidine-2-carboxylic acid], the pIC50 is 7.08. `COCCOc1cc(C)c(/C=C/c2cccc(-c3ccccc3)c2C#N)cc1CN1CCOC[C@H]1C(=O)O` [Compound 44, (S,E)-4-(5-(2-(2-Cyano-[1,1′-biphenyl]-3-yl)vinyl)-2-(2-methoxyethoxy)-4-methylbenzyl)morpholine-3-carboxylic acid]: the pIC50 was 6.58. As for `Cc1ccc(OCCCCC#N)c(CN2CCCC[C@H]2C(=O)O)c1/C=C/c1cccc(-c2ccccc2)c1C#N` [Compound 45, (S,E)-1-(2-(2-(2-Cyano-[1,1′-biphenyl]-3-yl)vinyl)-6-(4-cyanobutoxy)-3-methylbenzyl)piperidine-2-carboxylic acid], the figure is below 5.00.
